Experimental findings from patent publication US10858360B2, “Tricyclic gyrase inhibitors” (priority 2011, dated 2020) are described below.

In brackets after ≈: the same amount, converted by molar mass.

The test system of one assay is S. aureus ATCC 13709. Nature of the assay: MIC, S. aureus ATCC 13709 (Alamar Blue broth microdilution). The class given is cell-based. The following applies: Alamar Blue read after overnight incubation at 35° C.; for MIC Sa: S. aureus; for MIC: Staphylococcus aureus, ATCC13709, S. aureus. (Resazurin is reduced to fluorescent resorufin, in cell work by metabolically active cells.)

In a further assay the test system is E. coli ATCC 25922. Briefly: MIC, E. coli ATCC 25922. Format: cell-based. To be noted: Alamar Blue read after overnight incubation at 35° C.; for MIC Ec: E. coli; for MIC: Escherichia coli, ATCC25922, E. coli.

Turning to `CNc1cc(F)cc2c1[nH]c1nc(Oc3cnc(C)nc3)nc(N3CCNCC3)c12` [4.163], the “MIC Sa” value with S. aureus ATCC 13709 is at most 0.5 µg/mL. The “MIC Ec” value against E. coli ATCC 25922 was at most 0.5 µg/mL.
As a reminder, the MIC is the least concentration at which growth counts as inhibited. For `CNc1cc(F)cc2c1[nH]c1nc(Oc3cncc(OC)c3)nc(N3CC4C(N)C4C3)c12` (stereo not drawn) [4.164], the minimum inhibitory concentration (MIC) in the assay on S. aureus ATCC 13709 was at most 0.5 µg/mL; against E. coli ATCC 25922, 1 µg/mL (≈ 2.3 µM).
For `CNc1cc(F)cc2c1[nH]c1nc(Oc3cncc(OC)c3)nc(N3C[C@H](N)C4(CC4)C3)c12` [4.165], in that order: at most 0.5 µg/mL and 1 µg/mL (≈ 2.22 µM).
In the same order, the values of `CNc1cc(F)cc2c1[nH]c1nc(Oc3cncc(OC)c3)nc(N3CCC4CNC4C3)c12` (stereo not drawn) [4.166] are at most 0.5 µg/mL and 2 µg/mL (≈ 4.45 µM).
In the same order, the values of `CNc1cc(F)cc2c1[nH]c1nc(Oc3cncc(-c4nnnn4C)c3)nc(N3CC4C(N)C4C3)c12` (stereo not drawn) [4.168] are at most 0.5 µg/mL and 2 µg/mL (≈ 4.1 µM).
With `CNc1cc(F)cc2c1[nH]c1nc(Oc3cncc(-c4nnnn4C)c3)nc(N3CC[C@@H](N)C3)c12` [4.169], the minimal inhibitory concentration (MIC) was determined as 2 µg/mL (≈ 4.21 µM) in the assay on S. aureus ATCC 13709 and 8 µg/mL (≈ 16.8 µM) against E. coli ATCC 25922.
`CNc1cc(F)cc2c1[nH]c1nc(Oc3cncc(-c4nnnn4C)c3)nc(N3CC4CNC(C4)C3)c12` (stereo not drawn) [4.170]: the MIC is 2 µg/mL (≈ 3.99 µM) with S. aureus ATCC 13709 and above 16 µg/mL against E. coli ATCC 25922.
For `CNc1cc(F)cc2c1[nH]c1nc(Oc3cnc(N)nc3)nc(N3CC4C(N)C4C3)c12` (stereo not drawn) [4.172], in that order: at most 0.5 µg/mL and at most 0.5 µg/mL.
In the same order, the values of `CNc1cc(F)cc2c1[nH]c1nc(Oc3cnc(N)nc3)nc(N3CCC4(CC4N)C3)c12` (stereo not drawn) [4.173] are at most 0.5 µg/mL and 1 µg/mL (≈ 2.3 µM).
Regarding `CNc1cc(F)cc2c1[nH]c1nc(Oc3cnc(N)nc3)nc(N3CC4CNC(C4)C3)c12` (stereo not drawn) [4.175], the MIC is at most 0.5 µg/mL against S. aureus ATCC 13709 and 8 µg/mL (≈ 18.4 µM) with E. coli ATCC 25922.
For `CNc1cc(F)cc2c1[nH]c1nc(Oc3cnc(N)nc3)nc(N3CCC(CN)C3)c12` (stereo not drawn) [4.176], in that order: at most 0.5 µg/mL and 1 µg/mL (≈ 2.36 µM).
`CNc1cc(F)cc2c1[nH]c1nc(Oc3cnc(N)nc3)nc(N3CC(N)C4(CC4)C3)c12` (stereo not drawn) [4.177]: the “MIC Sa” value in the assay with S. aureus ATCC 13709 was at most 0.5 µg/mL. For the same molecule, the “MIC Ec” value in the assay on E. coli ATCC 25922 is at most 0.5 µg/mL.
Regarding `CNc1cc(F)cc2c1[nH]c1nc(Oc3cnc(N)nc3)nc(N3CC4CNC4C3)c12` (stereo not drawn) [4.178], the figures for the MIC against S. aureus ATCC 13709 and against E. coli ATCC 25922 were at most 0.5 µg/mL and 8 µg/mL (≈ 19 µM), respectively.
With `CNc1cc(F)cc2c1[nH]c1nc(Oc3cnc(N)nc3)nc(N3CCC(N)C3)c12` (stereo not drawn) [4.179], the “MIC Sa” value in the assay with S. aureus ATCC 13709 was at most 0.5 µg/mL. In addition, the “MIC Ec” value against E. coli ATCC 25922 was determined as 1 µg/mL (≈ 2.44 µM).
On to `CNc1cc(F)cc2c1[nH]c1nc(Oc3cnc(N)nc3)nc(N3CCCC(N)C3)c12` (stereo not drawn) [4.180], for which the “MIC Sa” value in the assay on S. aureus ATCC 13709 is 1 µg/mL (≈ 2.36 µM). Moreover, the “MIC Ec” value in the assay with E. coli ATCC 25922 amounted to 8 µg/mL (≈ 18.9 µM).
For `CNc1cc(F)cc2c1[nH]c1nc(Oc3cnc(N)nc3)nc(N3CCC4CNC4C3)c12` (stereo not drawn) [4.181], the MIC was at most 0.5 µg/mL against S. aureus ATCC 13709 and 8 µg/mL (≈ 18.4 µM) against E. coli ATCC 25922.
Consider `CNc1cc(F)cc2c1[nH]c1nc(Oc3cnc(N)nc3)nc(N3CC(NC(=O)CN)C4(CC4)C3)c12` (stereo not drawn) [4.182], for which, in the assay on S. aureus ATCC 13709, the “MIC Sa” value is 2 µg/mL (≈ 4.06 µM). In addition, the “MIC Ec” value in the assay with E. coli ATCC 25922 amounted to 16 µg/mL (≈ 32.5 µM).
With `CNc1cc(F)cc2c1[nH]c1nc(Oc3cnc(N)nc3)nc(N3C4CCC3CC(N)C4)c12` (stereo not drawn) [4.183], the MIC against S. aureus ATCC 13709 was found to be 1 µg/mL (≈ 2.22 µM); against E. coli ATCC 25922 it was 8 µg/mL (≈ 17.8 µM).
For `CNc1cc(F)cc2c1[nH]c1nc(Oc3cnc(N)nc3)nc(N3CC4CC4(CN)C3)c12` (stereo not drawn) [4.185], in that order: at most 0.5 µg/mL and 8 µg/mL (≈ 18.4 µM).
For `CNc1cc(F)cc2c1[nH]c1nc(Oc3cnc(N)nc3)nc(N3C[C@H]4CC[C@@H](N)[C@H]4C3)c12` [4.186], in that order: at most 0.5 µg/mL and 2 µg/mL (≈ 4.45 µM).
For `CNc1cc(F)cc2c1[nH]c1nc(Oc3cnc(N)nc3)nc(N3C[C@H]4CCN[C@H]4C3)c12` [4.187], in that order: at most 0.5 µg/mL and 2 µg/mL (≈ 4.59 µM).
On to `CNc1cc(F)cc2c1[nH]c1nc(Oc3cnc(N)nc3)nc(N3CC4C(CN)C4C3)c12` (stereo not drawn) [4.188], for which the MIC was at most 0.5 µg/mL in the assay on S. aureus ATCC 13709 and 8 µg/mL (≈ 18.4 µM) against E. coli ATCC 25922.
For `CNc1cc(F)cc2c1[nH]c1nc(Oc3cnc(N)nc3)nc(N3CC4CCC(N)C4C3)c12` (stereo not drawn) [4.189], in that order: at most 0.5 µg/mL and 2 µg/mL (≈ 4.45 µM).
In the same order, the values of `CNc1cc(F)cc2c1[nH]c1nc(Oc3cnc(N)nc3)nc(N3CC4C[C@@H](N)C4C3)c12` (stereo partly drawn) [4.190] are at most 0.5 µg/mL and 1 µg/mL (≈ 2.3 µM).
In the same order, the values of `CNc1cc(F)cc2c1[nH]c1nc(Oc3cnc(N)nc3)nc(N3C[C@H]4CC3C[C@H]4N)c12` [4.191] are at most 0.5 µg/mL and 2 µg/mL (≈ 4.59 µM).
For the molecule `CNc1cc(F)cc2c1[nH]c1nc(Oc3cnc(SC)nc3)nc(N3CC4C(N)C4C3)c12` (stereo not drawn) [4.193], the MIC in the assay with S. aureus ATCC 13709 and against E. coli ATCC 25922 was at most 0.5 µg/mL throughout.
For `CNc1cc(F)cc2c1[nH]c1nc(Oc3cnc(SC)nc3)nc(N3C[C@H](N)C4(CC4)C3)c12` [4.194], the MIC in the assay with S. aureus ATCC 13709 and against E. coli ATCC 25922 was at most 0.5 µg/mL throughout.
